Experimental data as given in patent US20220142209A1, “METHODS AND COMPOSITIONS FOR IMPROVING THE TASTE OF DIET COLA SODAS AND OTHER BEVERAGES” (priority 2019, published 2022).

Legend:
[1] = Informal taste test of additives mixed into DIET COKE; type: in vivo, people
Excerpt: To provide enabling context for some of the embodiments disclosed herein, simple formulations are described here (with more enablement in the Exemplary Embodiments below). Pour into a cup about 7.5 ounces of a DIET COKE® that includes just aspartame. Mix in about one to two teaspoons of ENACO ERC-A20 decocainized liquid coca leaf extract, both liquids at room temperature. […] Adding a bag of sugar (5 grams) results in an even more pleasant taste while providing a cola soda with 80% less sugar. Using glucose instead of sugar (sucrose) produce a fructose-free, low-sugar, cola soda.
(§1) Taste and aroma are not separate sensory experiences. For example, when many people are afflicted with the common cold, and have stuffy noses, they can lose some or all of the taste of foods. This is attributed to the odor sensors in the nose being blocked. Also, when many people eat foods, they can have a time dependent sensory experience, as the (chewed) food travels to the back of the mouth and then some of the aromas enter the back of the nasal cavity, due to retronasal smell (versus orthonasal smell due to aromas entering the front of the nasal cavity, for example, when you sniff a rose). Thus, in many of the embodiments disclosed herein, the term “taste and/or aroma” is used. Also, the Exemplary Embodiments that follows, statements in changes in taste and/or aroma are based on the opinions of a few people. Not all people drinking the embodiments disclosed herein will experience the same degree of improvement in taste and/or aroma.
For the exemplary embodiments that follow, the examples are performed with all liquids at room temperature. Sodas typically taste more pleasant at lower temperatures (sodas retain carbonation better at lower temperatures, which creates a better taste for many people). Any improvements in taste and/or aroma resulting from any of the following embodiments at room temperature are similar, if not more pleasant, at lower temperatures down to freezing. Tastes and/or aromas can also vary due to the use of soda container: glass, plastic, metal or paper. There are many who think that cola sodas taste best when consumed from glass bottles. For many of the exemplary embodiments disclosed herein, Bodum PAVINA® Coffee Mugs, double-wall insulated glass mugs, 8-ounce size, are used.
One embodiment of an improved cola beverage product is understood with the following exemplary method and resulting exemplary article of manufacture. Pour about 7.5 ounces of DIET COKE® (about 220 grams—about 222 milliliters) into a container such as a cup. Mix in about one half teaspoon to two teaspoons (about 2.5 to 10 grams—about 2.5 to 10 milliliters) of coca leaf extract, for example, the ERC-A20 liquid coca extract available from ENACO (Lima, Peru) or its equivalents. […] Any coca leaf extract with similar chemical components (see FIG. 4 and FIG. 11, for example) to ERC-A20 (the version of the extract circa 2018/2019) can be used, and the extracts can be added to other diet sodas such as COKE ZERO® and COKE ZERO SUGAR®.

[2] = adults and children; cited from earlier work
[3] = Taste test of ethyl benzoate in hot unsweetened cacao drink; type: in vivo, people; details: 5 ml of 24 micrograms per milliliter solution in one cup hot water with about two tablespoons unsweetened cacao powder
Excerpt: as §1
Some of the unpleasant taste of unsweetened cacao can be removed by using ethyl benzoate. In one exemplary embodiment to improve the taste of any brand of unsweetened cacao and/or chocolate made therefrom, prepare one cup of hot water and add about two tablespoons of unsweetened HERSHEY® cacao powder. Mix in 5 milliliters (one teaspoon) of a liquid (e.g., water) solution that has, for example, 24 micrograms per milliliters of ethyl benzoate. […]

OC[C@@H](O)[C@H](O)[C@@H](O)CO [xylitol]
taste of resulting beverage ([1]; one teaspoon powdered xylitol dissolved in 1.5 teaspoons ERC-A20, added to 220 ml DIET COKE): An improvement in taste is experienced | safe amounts [2]: less than 20 grams a day

CC1=CCC(C(C)(C)O)CC1 (stereo not drawn) [alpha-terpineol]
experience of drinking modified DIET COKE ([1]; about one teaspoon of 48 micrograms/milliliter water solution in 220 ml DIET COKE): more pleasant

CCOC(=O)c1ccccc1 [ethyl benzoate]
taste and/or aroma versus untreated DIET COKE ([1]; about 5 ml (one teaspoon) of about 24 micrograms per milliliter solution in 7.5 ounces DIET COKE): more pleasant | taste of resulting beverage ([1]; solution of just ethyl benzoate instead of liquid coca leaf extract, about 7.5 ounces DIET COKE): improvement in taste, but lesser of an improvement than with the leaf extract | pleasantness of resulting beverage [3]: more pleasant

C=CC(C)(O)CCC=C(C)C (stereo not shown) [linalool]
change in unpleasantness ([1]; one teaspoon, 40 micrograms per milliliter, in 220 ml Diet Coke): little-to-no change

COC(=O)c1ccccc1 [methyl benzoate]
DIET COKE taste ([1]; about 5 ml of solution of about 24 micrograms per milliliter): taste similar to that of using ethyl benzoate

CC1=CCC(C(C)C)=CC1 [gamma-terpinene]
taste of resulting DIET COKE ([1]; one half teaspoon, 40 micrograms/milliliter, in 220 ml DIET COKE): while more pleasant as seen with adding alpha-terpineol, also has less of a “coca cola” taste

O=C([O-])c1ccccc1.[Na+] [sodium benzoate]
Coca-Cola taste ([1]; 1/32nd teaspoon (230 milligrams) in 220 ml DIET COKE): No improvement
